The source of these data is patent publication US20230292776A1, “GAS PHASE TREATMENT OF PRODUCE” (priority 2022, published 2023).

Assay [1] has as its system Penicillium digitatum (Pd). In words: Antifungal activity of vapor against Penicillium digitatum (Pd) in wounded, infected mandarins. Type of assay: in vivo. The settings on record: after 6 days.
Assay [2] has as its system Colletotrichum gloeosporioides (Cg). Put plainly: Antifungal activity against Colletotrichum gloeosporioides (Cg) in wounded, infected avocados. The settings on record: Example 9; avocados; vapor of 3 mL, 72 hour exposure. Type of assay: in vivo. How it is done: Example 7. The antifungal activity of AITC and DADS vapor against Colletotrichum gloeosporioides (Cg) was tested in avocados. All test pieces were wounded by removing the stem and infected by dispensing 1000 Cg spores suspended in 10 μL of water into the wound. The test groups consisted of avocados that were: untreated and uninfected; untreated and infected; treated by dipping in a solution of 0.1 g/L of prochloraz; exposed to the vapor of 3 mL of AITC disposed in a Petri dish; and exposed to the vapor of 3 mL of DADS disposed in a Petri dish. FIG. 9 quantifies the infection results. AITC vapor reduced the incidence of Cg mold by 97% compared to the untreated test group and 70% compared to the prochloraz treated test group. DADS vapor reduced the incidence of Cg mold by 60% compared to the untreated test group.
Example 8. The antifungal activity of a range of DADS vapor exposure times was tested against Cg in avocados. All test pieces were wounded by removing the stem and infected by dispensing 1000 Cg spores suspended in 10 μL of water into the wound. The test groups consisted of avocados that were: infected and untreated; and exposed to the vapor of 3 mL of DADS in a Petri dish for 24 hours, 48 hours, and 72 hours. FIG. 10 quantifies the infection results. Test group exposed to DADS vapor at all exposure times reduced the incidence of Cg mold compared to the untreated test group. A 24 hour DADS exposure reduced the incidence of Cg mold by 8%. A 48 hour DADS exposure reduced the incidence of Cg mold by 25%. A 72 hour DADS exposure reduced the incidence of Cg mold by 57%.
(§1) Example 9. The antifungal activity of a range of AITC and carvacrol vapor exposure times was tested against Cg in avocados. To measure the effect of the various treatments on ripening, durometer shore was taken after 7 days of incubation at ambient temperature and high humidity. All samples were wounded by removing the stem and infected by dispensing 1000 Cg spores suspended in 10 μL of water in the wound. The test groups consisted of avocados that were: infected and left untreated on the benchtop; infected and left untreated under a fume hood; exposed to the vapor of 3 mL of AITC in a Petri dish for 24 hours, 48 hours, and 72 hours; and exposed to the vapor of 3 mL of carvacrol in a Petri dish for 72 hours. FIG. 11 quantifies the infection results. […] All exposure times to AITC vapor reduced the incidence of Cg mold compared to the untreated samples. A 24 hour AITC exposure reduced the incidence of Cg mold by 90%. A 48 hour AITC exposure reduced the incidence of Cg mold by 97%. A 72 hour AITC exposure reduced the incidence of Cg mold by 83%.
(§2) Example 10. The antifungal activity of a range of AITC vapor exposure times were tested against Cg in avocados. To measure the effect of the various treatments on ripening, durometer shore was taken after 6 days of incubation at ambient temperature and high humidity. All samples were wounded by removing the stem and infected by dispensing 1000 Cg spores suspended in 10 μL of water in each wound. The test groups consisted of avocados that were: infected and left untreated on the benchtop; infected and left untreated in a fume hood; exposed to the vapor of 3 mL of AITC in a Petri dish for 24 hours, 48 hours, and 72 hours. FIG. 13 quantifies the infection results. […] All exposure times to AITC vapor reduced the incidence of Cg mold compared to the untreated samples.
Example 21. The antifungal activity of avocados exposed to AITC vapor and prochloraz was tested against Cg in avocados. To measure the effect of the various treatments on ripening, durometer shore was taken after 5 days of incubation at ambient temperature (about 20° C. to about 25° C.) and high humidity (about 88% relative humidity to about 93% relative humidity). All samples were wounded by removing the stem and infected by dispensing 1000 Cg spores suspended in 10 μL of water in the wound. […]

The test system of the next assay is avocados. In words: Durometer shore (firmness, ripening) of treated avocados. The settings on record: Example 21; Cg-infected avocados; AITC 125 μL 30 minutes; prochloraz 0.1 g/L dip; after 5 days. Format: in vivo, avocado. The protocol: as §1, §2
Example 21. The antifungal activity of avocados exposed to AITC vapor and prochloraz was tested against Cg in avocados. To measure the effect of the various treatments on ripening, durometer shore was taken after 5 days of incubation at ambient temperature (about 20° C. to about 25° C.) and high humidity (about 88% relative humidity to about 93% relative humidity). All samples were wounded by removing the stem and infected by dispensing 1000 Cg spores suspended in 10 μL of water in the wound. Exposure to vapor was done by placing the avocados in an airtight container, dispensing AITC onto Whatman filter paper discs, suspending the discs in front of a battery-powered fan, closing the container and incubating the avocados for 30 minutes. After vapor exposure, the avocados were left at ambient temperature, high humidity, and assessed for Cg mold on day 5. Treatment groups consisted of avocados that were: exposed for 30 minutes to the vapor of 125 μL of AITC disposed on a filter paper disc; dipped in a solution of 0.1 g/L of prochloraz and placed to dry on a rack in front of a fan for 30 min; infected and left untreated; and uninfected and untreated. […] To prepare the 0.1 g/L of prochloraz, 10 mg of prochloraz was mixed with 10 mL of ethanol and 90 mL of water. […] A 24 hour AITC exposure reduced the incidence of Cg mold by 90%. […] The mean shore value for the untreated avocados was 28.8 (standard deviation (SD)=10.8). The mean shore value for the infected avocados was 47.3 (SD=11.8). The mean shore value of the positive control, prochloraz treated avocados was 44.3 (SD=14.7). The mean shore value of the AITC treated avocados was 61.1 (SD=10.5).
Durometer Shore Measurement: A Fruit Hardness Tester— HPE III Fff w/Sphere Ø 5.0 mm Test Anvil is used for the measurements. The Operating Procedure is as follows: • 1) At room temperature and 1 atm pressure, switch on the measuring device and press the hull or sleeve against the specimen so that the contact surface of the pressure plate rests on the fruit. […]

Structures are written as SMILES.

In assay [1] (Example 6, treated with 1 g/L, fruit of poor quality with latent infection), `C=CCOC(Cn1ccnc1)c1ccc(Cl)cc1Cl` (stereo not shown) [imazalil, reference compound] displayed an infected mandarins of 83.3%. In the case of `Cc1ccc(C(C)C)cc1O` [carvacrol], the “reduction of the incidence of Cg mold” value in assay [2] is reported as “did not reduce the incidence of Cg mold”.

Regarding `CCCN(CCOc1c(Cl)cc(Cl)cc1Cl)C(=O)n1ccnc1` [prochloraz, reference compound], the mean shore value in the assay with avocados is given as 44.3 (SD=14.7). As to `C=CCc1ccc(O)c(OC)c1` [eugenol], in assay [1] (Example 19, mandarins, 62.5 μL AITC and/or 125 μL of all other compounds, 30 minutes), the “performance against Pd versus the untreated samples” value was “performed better than the untreated samples”.
